Measurements published in patent US20240342138A1, “MICROTUBULE TARGETING AGENTS” (BPGbio, Inc., priority 2023, published 2024).

How the values were obtained:
[1] = tested on: patient-derived organoids (PDOs); test: Viability of patient-derived organoids of multiple tumor types (CellTiter-Glo, 5 days); format: cell-based, human
Protocol: PDOs were treated with Compound 1 or controls (vehicle control—0.1% DMSO, positive control—10% DMSO) for 5 days. Viability was assessed using the CellTiter-Glo® assay. IC50 and maximal (max) inhibition values were extrapolated from the viability curves. Exemplars of models deemed to be highly responsive (>60% max inhibition; A), responsive (40-60% max inhibition; B), and non-responsive (<40% max inhibition; C) to Compound 1 are shown. Summary of all models tested (D); NR (No Regression, ambiguous nonlinear regression curves or R2<0.65) and NA (Not Applicable, ambiguous maximum inhibition). Compiled data of N=4 replicates.
Potency of Compound 1 was evaluated in a panel of patient-derived organoids (PDOs) representative of multiple tumor types.
• 1. Cryopreserved samples (200-300 mg or more depending on study design) were prepared as described below. • 2. The collected tumors were dissociated manually (using a tumor mincing process previously developed) or using the Gentle MACS Dissociator and human Tumor Dissociation Kit (Miltenyi). After preparation, tumor fragments were cultured in DMEM+10% FBS+1× antibiotic/antimycotic (“anti-anti”) plus 1:500 Primocin antimicrobial agent for up to 7 days before filtering out large fragments (using a 500 μm filter followed by 200 μm filters). • 3. Flow-through was cultured in: Cell-Tak coated low volume flat-bottom 384-well assay plates. • 4. 10× concentrations of test agent (or DMSO as vehicle) was added to media in volumes that will vary depending on culturing conditions. • 5. Each group had quadruplicate wells, including 0.1% DMSO (final as vehicle) and 10% DMSO as positive control. • 6. PBS was plated in the perimeter wells to avoid edge-effect artifacts. • 7. Cells were treated for 5 days and viability read via Cell Titer Glo. Viability was quantitatively assessed via Cell Titer Glo at Day 0 (baseline), Day 6 (baseline), and Day 6 (compound treatment-full dose response). […]

COLO205 tumors = test: Colorectal cancer xenograft model; format: in vivo, nude mice
Protocol: FIG. 11A-11E show the efficacy of Compound 1 in a colorectal cancer xenograft model (COLO205). A) In vitro potency of Compound 1 in COLO205 cells as evaluated by ATPlite 1Step™ Perkin Elmer (performed by NTRC Oncolines). B) COLO205 cells were implanted subcutaneously in nude mice and tumors were allowed to grow to a volume of 210 mm3 followed by randomization of animals into three (3) groups (vehicle control, 75 mg/kg, 150 mg/kg Compound 1) with 12 animals per group. A Compound 1 solid dispersion was prepared prior to each dosing and administered by oral gavage two times a day (BID). Mean tumor volume of each group over time and the growth of tumor in each individual animal was graphed. For each individual animal of […] group TGI (%) was calculated based on the tumor growth inhibition of individual tumor at each given day of the study compared to the average of the group for that given day of the study. P-values were calculated using two-tailed distribution and two-sample equal variance (homoscedastic) for each group treated with Compound 1 for each given day of the study in reference to vehicle control. NS p>0.05; *p≤0.05; **p≤0.01; ***p p≤0.001; **** p≤0.0001. C) Plasma and tumor tissues from vehicle (n=11), 75 mg/kg (n=12), and 150 mg/kg (n=11) groups were harvested at the end of the study. The concentration of Compound 1 in the plasma or tumor tissue was plotted as a column plot (Average t SEM) or Scatter Plot with Median. D) Tumor tissues from vehicle (n=11), 75 mg/kg (n=12) and 150 mg/kg (n=11) groups were harvested at the end of the study when each animal was sacrificed. The level of two biomarkers, pHH3 and CCNB1 in each tissue was measured and graphed as the Min-to-Max plot and scatter plot of the level of each biomarker. The line in the scatter plot indicates the group mean. E) Body weight of each individual animal was measured on each day of the study and graphed using Graphpad Prism.
Anti-tumor efficacy of Compound 1 was evaluated against three (3) different preclinical oncology mice models of colorectal cancer, prostate cancer, and lung adenocarcinoma (see Table 5 below). For this purpose, an oral formulation of Compound 1 was used.
COLO205 is a colorectal adenocarcinoma (Dukes' Type D) cell line of epithelial origin isolated from human colon. COLO205 is a model that is well validated in the cancer field for in vivo efficacy evaluation of oncology therapeutics. Nude mice were implanted subcutaneously with COLO205 cells and tumors were grown to an average tumor volume of 113 mm^3 followed by randomization into three (3) groups consisting of vehicle control, 75 mg/kg and 150 mg/kg Compound 1 (12 animals per group). A Compound 1 solid dispersion was administered by oral gavage two times a day (BID). Originally, the study was planned for 28 days of dosing; however, several animals left the study after 17 days of dosing due to tumor size reaching the limit of 2000 mm^3. Therefore, only the data for the first 17 days of dosing were used for the analysis. Additionally, one animal from vehicle group and one animal from 150 mg/kg group left the study prior to day 17 and were therefore removed from the analysis. The percentage of tumor growth inhibition (TGI %) was calculated for each individual animal.

COc1ccccc1-c1nc(CNC(=O)c2ccccc2OC(F)F)n[nH]1 [Compound 1, 2-(difluoromethoxy)-N-[[5-(2-methoxyphenyl)-1H-1,2,4-triazol-3-yl]methyl]benzamide]
Response of PDO models (max inhibition class) ([1]; Glioblastoma multiforme, SCLC, ovarian, endometrial, breast, prostate cancer, renal cell carcinoma): responsive (responsive (40-60% max inhibition))
Response of PDO models (max inhibition class) ([1]; colorectal cancer (FIG. 7C)): non-responsive (non-responsive (<40% max inhibition))
Response of PDO models (max inhibition class) ([1]; endometrial cancer, SCLC, sarcoma, breast cancer, NSCLC, ovarian cancer): highly responsive (highly responsive (>60% max inhibition))
TGI (%) (COLO205 tumors; 75 mg/kg BID oral, day 17): 20.13%
Maximum TGI (%), end of the study (COLO205 tumors; 150 mg/kg BID oral, day 17): 35.38%
Body weight (COLO205 tumors; 150 mg/kg group, FIG. 11E): no significant body weight change by the end of the study
Level of Compound 1 in plasma and tumor tissue (COLO205 tumors; 75 vs 150 mg/kg, end of study, FIG. 11C): dose-dependent elevation
cyclin B1 and phospho Histone H3 (pHH3) in tumor tissue (COLO205 tumors; markers of M phase arrest, FIG. 11D): increase
